The source of these data is paper PMC13040415, “Structure and Mechanism of PhdC, a Prenylated‐Flavin Maturase” (Proteins, 2025).

Assay [1] has as its target T1, PhdC (Mycolicibacterium fortuitum, UniProt A0A0N9XAG5).
T1 construct: gene XA26_16660; homodimer, site at dimer interface
T1 sequence (A0A0N9XAG5 2-155): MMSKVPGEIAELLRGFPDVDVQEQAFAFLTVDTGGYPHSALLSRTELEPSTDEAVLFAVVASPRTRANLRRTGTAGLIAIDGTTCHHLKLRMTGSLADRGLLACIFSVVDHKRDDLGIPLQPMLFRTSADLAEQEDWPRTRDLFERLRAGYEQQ
In words: differential scanning fluorimetry (SUPR-DSF); Tm of apo to Tm of FMN-bound. The format is binding. As to conditions: 100 mM KPi, pH 7.5; ramp 1°C/min. For orientation: DSF heats the sample and reads unfolding from a dye or from intrinsic fluorescence.

The target in assay [2] is T1, PhdC. The assay can be described thus: isothermal titration calorimetry. The format is binding.

As for `Cc1cc2nc3c(=O)[nH]c(=O)nc-3n(C[C@H](O)[C@H](O)[C@H](O)COP(=O)(O)O)c2cc1C` [FMN], the Tm on PhdC [1] is 63.6 to 66.5 °C. The compound further came in with a Kd on PhdC [2] of 17.8 ± 0.26 µM.

What is called Tm is the temperature at which the thermal transition is half complete. The Kd is a measure of binding affinity in units of concentration. Lower therefore signals tighter binding.
